Here are results for one compound from US6613538B2, “Detection of HLA-G” (priority 1999, dated 2003).

Holding throughout (format): cell-based, human
In one assay the test system is cytotrophoblast cells. Description: HLA-G mRNA by quantitative RT-PCR after progesterone treatment. As to the method:
(§1) Methods. Purified cytotrophoblasts were prepared from first trimester placental tissue by standard techniques. JEG-3 choriocarcinoma cells were cultured in RPMI-1640 medium containing 10% FCS for three days. The cells were then treated with various doses of progesterone for 24 hours. Cell lysates and conditioned media were prepared for ELISA and total RNA was extracted for PCR. The ELISA was conducted according to the invention, using the 3C/G4 and 2C/C8 anti-HLA-G monoclonal antibodies. HLA-G protein, purified by immunoaffinity columns from first trimester placental tissue, was used as standard. The sensitivity of the ELISA was 20 ng/ml and assay variation was less than 10%. Quantitative RT-PCR was performed by using specific primers for HLA-G. Results were assessed for statistical significance using one-way analysis of variance.

The subject of assay [1] is JEG-3 choriocarcinoma cells. The description is as above. As to the method:
as §1

In assay [2] the test system is JEG-3 choriocarcinoma cells. In words: HLA-G protein by ELISA after progesterone treatment. Particulars: progesterone doses from 10 ng/ml, 24 hours. On the procedure: as §1
For orientation: In an ELISA, binding on a coated surface is turned into a signal by an enzyme label.

In assay [3] the test system is cytotrophoblasts (placenta cell culture). The description is as above. The note with it: progesterone 100 ng and 1000 ng/ml, 24 hours. As to the method:
as §1

`CC(=O)[C@H]1CC[C@H]2[C@@H]3CCC4=CC(=O)CC[C@]4(C)[C@H]3CC[C@]12C` [progesterone]: in the assay on cytotrophoblast cells, the “HLA-G mRNA levels in cytotrophoblast cells” value was “increase of HLA-G mRNA levels”. Also, the “HLA-G mRNA levels in JEG-3 cells” value in assay [1] (after progesterone treatment, RT-PCR) is “increase of HLA-G mRNA levels”. Besides, in assay [1] (progesterone 1000 ng/ml, cell type not specified in the sentence (JEG-3 and cytotrophoblast cells tested)), the “HLA-G mRNA levels at 1000 ng/ml versus 10 and 100 ng/ml” value was “significantly higher HLA-G mRNA levels”. Also, in assay [2], the “HLA-G concentration in JEG-3 cell lysate” value was “significant increase” and the “HLA-G concentration in JEG-3 conditioned medium” value is reported as “significant increase”. The “HLA-G protein in placenta cell culture” value in assay [3] is “significantly increased”.
